{
  "source": "the supplement of paper PMC10307832",
  "assay_in_all_cases": "relative viability (nuclei count vs DMSO), 5 days (fraction); higher = more cells survive",
  "key": {"[1]": {"compound": "COc1cc(Nc2ncc3c(n2)-c2ccc(Cl)cc2C(c2c(F)cccc2OC)=NC3)ccc1C(=O)O [Alisertib] + N=C(N)NC(=N)NCCc1ccccc1 [Phenformin] (partner 250 µM)", "procedure,_shortened": "(§1)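 Cells from lung cancer lines were seeded into 1536-well plates and, one day later, dosed by pin tool. Treatments were either a single drug or a fixed dose of an anchor drug with five library-drug doses (not always all listed) in √10 steps. After 5 days, nuclei were stained in a one-step fixation (final 0.05% Triton X-100, 1% formaldehyde, 1 ug/ml Hoechst) and counted on 4× images, and relative viability is the treated-to-vehicle nuclei ratio, as the median of duplicate plates.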"}, "[2]": {"compound": "COc1cc(Nc2ncc3c(n2)-c2ccc(Cl)cc2C(c2c(F)cccc2OC)=NC3)ccc1C(=O)O [Alisertib] + NC(=O)Nc1cc(-c2cccc(F)c2)sc1C(=O)N[C@H]1CCCNC1 [AZD7762] (partner 0.2 µM)", "procedure,_shortened": "as §1"}, "[3]": {"compound": "COc1cc(Nc2ncc3c(n2)-c2ccc(Cl)cc2C(c2c(F)cccc2OC)=NC3)ccc1C(=O)O [Alisertib] + Cc1nc(NC(=O)N2CCC[C@H]2C(N)=O)sc1-c1ccnc(C(C)(C)C(F)(F)F)c1 [Alpelisib] (partner 2 µM)", "procedure,_shortened": "as §1"}, "[4]": {"compound": "COc1cc(Nc2ncc3c(n2)-c2ccc(Cl)cc2C(c2c(F)cccc2OC)=NC3)ccc1C(=O)O [Alisertib] + CS(=O)(=O)N1CCN(Cc2cc3nc(-c4cccc5[nH]ncc45)nc(N4CCOCC4)c3s2)CC1 [Pictilisib] (partner 1 µM)", "procedure,_shortened": "as §1"}},
  "data": [
    {"cell line": "NCI-H1734", "values": [
      {"measurement": "relative viability", "setting": "[1]; first compound 0.005 µM", "value": 0.314},
      {"measurement": "relative viability", "setting": "[1]; first compound 0.01581 µM", "value": 0.298},
      {"measurement": "relative viability", "setting": "[1]; first compound 0.05 µM", "value": 0.256},
      {"measurement": "relative viability", "setting": "[1]; first compound 0.1581 µM", "value": 0.221},
      {"measurement": "relative viability", "setting": "[1]; first compound 0.5 µM", "value": 0.176},
      {"measurement": "relative viability", "setting": "[2]; first compound 0.005 µM", "value": 0.501},
      {"measurement": "relative viability", "setting": "[2]; first compound 0.01581 µM", "value": 0.366},
      {"measurement": "relative viability", "setting": "[2]; first compound 0.05 µM", "value": 0.23},
      {"measurement": "relative viability", "setting": "[2]; first compound 0.1581 µM", "value": 0.18},
      {"measurement": "relative viability", "setting": "[2]; first compound 0.5 µM", "value": 0.149},
      {"measurement": "relative viability", "setting": "[3]; first compound 0.005 µM", "value": 0.623},
      {"measurement": "relative viability", "setting": "[3]; first compound 0.01581 µM", "value": 0.628},
      {"measurement": "relative viability", "setting": "[3]; first compound 0.05 µM", "value": 0.444},
      {"measurement": "relative viability", "setting": "[3]; first compound 0.1581 µM", "value": 0.253},
      {"measurement": "relative viability", "setting": "[3]; first compound 0.5 µM", "value": 0.239},
      {"measurement": "relative viability", "setting": "[4]; first compound 0.005 µM", "value": 0.427},
      {"measurement": "relative viability", "setting": "[4]; first compound 0.01581 µM", "value": 0.4},
      {"measurement": "relative viability", "setting": "[4]; first compound 0.05 µM", "value": 0.283},
      {"measurement": "relative viability", "setting": "[4]; first compound 0.1581 µM", "value": 0.226},
      {"measurement": "relative viability", "setting": "[4]; first compound 0.5 µM", "value": 0.17}
    ]},
    {"cell line": "NCI-H1755", "values": [
      {"measurement": "relative viability", "setting": "[1]; first compound 0.005 µM", "value": 0.558},
      {"measurement": "relative viability", "setting": "[1]; first compound 0.01581 µM", "value": 0.498},
      {"measurement": "relative viability", "setting": "[1]; first compound 0.05 µM", "value": 0.517},
      {"measurement": "relative viability", "setting": "[1]; first compound 0.1581 µM", "value": 0.397},
      {"measurement": "relative viability", "setting": "[1]; first compound 0.5 µM", "value": 0.262},
      {"measurement": "relative viability", "setting": "[2]; first compound 0.005 µM", "value": 0.478},
      {"measurement": "relative viability", "setting": "[2]; first compound 0.01581 µM", "value": 0.427},
      {"measurement": "relative viability", "setting": "[2]; first compound 0.05 µM", "value": 0.332},
      {"measurement": "relative viability", "setting": "[2]; first compound 0.1581 µM", "value": 0.328},
      {"measurement": "relative viability", "setting": "[2]; first compound 0.5 µM", "value": 0.259},
      {"measurement": "relative viability", "setting": "[3]; first compound 0.005 µM", "value": 0.876},
      {"measurement": "relative viability", "setting": "[3]; first compound 0.01581 µM", "value": 0.852},
      {"measurement": "relative viability", "setting": "[3]; first compound 0.05 µM", "value": 0.63},
      {"measurement": "relative viability", "setting": "[3]; first compound 0.1581 µM", "value": 0.414},
      {"measurement": "relative viability", "setting": "[3]; first compound 0.5 µM", "value": 0.248},
      {"measurement": "relative viability", "setting": "[4]; first compound 0.005 µM", "value": 0.41},
      {"measurement": "relative viability", "setting": "[4]; first compound 0.01581 µM", "value": 0.347},
      {"measurement": "relative viability", "setting": "[4]; first compound 0.05 µM", "value": 0.271},
      {"measurement": "relative viability", "setting": "[4]; first compound 0.1581 µM", "value": 0.227},
      {"measurement": "relative viability", "setting": "[4]; first compound 0.5 µM", "value": 0.184}
    ]},
    {"cell line": "NCI-H1792", "values": [
      {"measurement": "relative viability", "setting": "[1]; first compound 0.005 µM", "value": 0.299},
      {"measurement": "relative viability", "setting": "[1]; first compound 0.01581 µM", "value": 0.253},
      {"measurement": "relative viability", "setting": "[1]; first compound 0.05 µM", "value": 0.107},
      {"measurement": "relative viability", "setting": "[1]; first compound 0.1581 µM", "value": 0.13},
      {"measurement": "relative viability", "setting": "[1]; first compound 0.5 µM", "value": 0.0705},
      {"measurement": "relative viability", "setting": "[2]; first compound 0.005 µM", "value": 0.571},
      {"measurement": "relative viability", "setting": "[2]; first compound 0.01581 µM", "value": 0.343},
      {"measurement": "relative viability", "setting": "[2]; first compound 0.05 µM", "value": 0.135},
      {"measurement": "relative viability", "setting": "[2]; first compound 0.1581 µM", "value": 0.0427},
      {"measurement": "relative viability", "setting": "[2]; first compound 0.5 µM", "value": 0.0721},
      {"measurement": "relative viability", "setting": "[3]; first compound 0.005 µM", "value": 0.678},
      {"measurement": "relative viability", "setting": "[3]; first compound 0.01581 µM", "value": 0.606},
      {"measurement": "relative viability", "setting": "[3]; first compound 0.05 µM", "value": 0.246},
      {"measurement": "relative viability", "setting": "[3]; first compound 0.1581 µM", "value": 0.0918},
      {"measurement": "relative viability", "setting": "[3]; first compound 0.5 µM", "value": 0.0744},
      {"measurement": "relative viability", "setting": "[4]; first compound 0.005 µM", "value": 0.304},
      {"measurement": "relative viability", "setting": "[4]; first compound 0.01581 µM", "value": 0.223},
      {"measurement": "relative viability", "setting": "[4]; first compound 0.05 µM", "value": 0.0811},
      {"measurement": "relative viability", "setting": "[4]; first compound 0.1581 µM", "value": 0.0732},
      {"measurement": "relative viability", "setting": "[4]; first compound 0.5 µM", "value": 0.0644}
    ]},
    {"cell line": "NCI-H1793", "values": [
      {"measurement": "relative viability", "setting": "[1]; first compound 0.005 µM", "value": 0.312},
      {"measurement": "relative viability", "setting": "[1]; first compound 0.01581 µM", "value": 0.233},
      {"measurement": "relative viability", "setting": "[1]; first compound 0.05 µM", "value": 0.291},
      {"measurement": "relative viability", "setting": "[1]; first compound 0.1581 µM", "value": 0.191},
      {"measurement": "relative viability", "setting": "[1]; first compound 0.5 µM", "value": 0.148},
      {"measurement": "relative viability", "setting": "[2]; first compound 0.005 µM", "value": 0.327},
      {"measurement": "relative viability", "setting": "[2]; first compound 0.01581 µM", "value": 0.166},
      {"measurement": "relative viability", "setting": "[2]; first compound 0.05 µM", "value": 0.215},
      {"measurement": "relative viability", "setting": "[2]; first compound 0.1581 µM", "value": 0.148},
      {"measurement": "relative viability", "setting": "[2]; first compound 0.5 µM", "value": 0.115},
      {"measurement": "relative viability", "setting": "[3]; first compound 0.005 µM", "value": 0.735},
      {"measurement": "relative viability", "setting": "[3]; first compound 0.01581 µM", "value": 0.9},
      {"measurement": "relative viability", "setting": "[3]; first compound 0.05 µM", "value": 0.383},
      {"measurement": "relative viability", "setting": "[3]; first compound 0.1581 µM", "value": 0.329},
      {"measurement": "relative viability", "setting": "[3]; first compound 0.5 µM", "value": 0.2},
      {"measurement": "relative viability", "setting": "[4]; first compound 0.005 µM", "value": 0.327},
      {"measurement": "relative viability", "setting": "[4]; first compound 0.01581 µM", "value": 0.297},
      {"measurement": "relative viability", "setting": "[4]; first compound 0.05 µM", "value": 0.23},
      {"measurement": "relative viability", "setting": "[4]; first compound 0.1581 µM", "value": 0.18},
      {"measurement": "relative viability", "setting": "[4]; first compound 0.5 µM", "value": 0.208}
    ]}
  ]
}
